For this series the following is noted: hairless mouse skin, 35° C., mean and SD of three.

Experimental findings from patent US8907153B2, “Adhesive peel-forming formulations for dermal delivery of drugs and methods of using the same” (Nuvo Research Inc., priority 2004, dated 2014) are described below.

Where two headings read alike, the source gives them in different places.

As to `CCCN1CCCC[C@H]1C(=O)Nc1c(C)cccc1C` [Ropivacaine], the “Average flux (steady-state flux of ropivacaine)” value is 1.2 ± 0.7 mcg/cm^2/h (saturated in Glycerin); 11 ± 2 mcg/cm^2/h (saturated in ISA (isostearic acid)); 8.9 ± 0.6 mcg/cm^2/h (saturated in Mineral Oil); 26 ± 8 mcg/cm^2/h (saturated in Span 20); 2.4 ± 0.1 mcg/cm^2/h (saturated in Tween 20).
